# Assays:
# Type in all cases: in vivo
# Arabidopsis thaliana [1] = test: HTPS post-emergence application on miniature dicot model plant; settings: for Emax: Arabidopsis thaliana, post-emergence, green area (RGB), read-out: Max Inhibition (%); for ED50 (g/ha): dose-response of normalized green area
# Protocol: (§1) The plates were placed in a controlled greenhouse in a random order inside a bath which allows flooding irrigation with tap water supplemented with a fertilizer. Applied compounds were dissolved into a final solution of 50% acetone, 49.9% DDW, 0.1% tween-20. A 96 well plate was used as a stock plate for preparing application solutions for 8 repeats. Each row contained different concentrations per chemical. Maximal concentration for application was 1.5 Kg/Ha and dilution factor is 2.5. Chemical application was performed one day after thinning out in a chemical hood. […] applied on first two true leaves in each well using 12 channel pipettes. Data collection: RGB (red, green, blue) data for green area per well was documented using camera. Data is collected at a few time points during the experiment: one day after thinning and before chemical application, two-, six- or nine-days post application. During the last two documentations, visual phenotyping was performed. Data analysis: Given RGB results and visual phenotype scores, a student t-test conducted to compare between treatment and control performance for continuous data (RGB) and Fisher exact test to analyze the non-continuous data (phenotypic scores). Dose-Response curves are generated for each treatment to infer ED50 and max. inhibition parameters, using treatment's log concentration range as the […] variable and normalized green area. Plate imaging performed at 11 and 18 DAA. RGB data for green area per well was documented and used to extract % inhibition. Dose-Response curves were built for each treatment to infer EC50, EC75 and EC90 parameters, using treatment's log concentration range as the independent variable and normalized green area as the dependent variable. Treatments were compared to controls performance given RGB results and using student's t-test (p-val≤0.05). Compounds 104-154 were applied in either or both pre- and post-emergence mode to either or both monocot and dicot model plants, following the methods described above. The compounds were applied as a gradient of concentrations as listed above, from which the ED50 was calculated.
# Arabidopsis thaliana [2] = test: HTPS pre-emergence application on dicot model plant; settings: for ED50 (g/ha): dose-response of normalized green area; for Max Inhibition (%): green area (RGB)
# Protocol: as §1, with “area. […]” for “area.”
# Amaranthus palmeri [3] = test: LTP pre-emergence greenhouse test; settings: Dosage 2000 g/ha
# Protocol: (§2) A basic panel of 8 weed species (Table 3) were sowed in 4×4×7 cm plastic pots containing inert sand (Sweet sand), intensively washed using osmosis water. Each specie was sowed in a separate pot. In each pot 10-15 seeds were sowed according to the specie viability. Sowing was performed one day before application. The plants were grown for 21 days in a controlled greenhouse (26±2° C. day 20±2° C. night). Hood irrigation (tap water+Shefer 5:3:8 8 mM) was given at a 50% water content by weight. Compounds were soluble in water (DDW), and commercial herbicide control was soluble in formulation B (Table 4). Application was conducted with an industrial sprayer (TeeJet 6502E nozzle) at a rate of 2 kg/ha and spray volume of […]. Pre-emergence advanced dose response experiment application was conducted at six rates between 1-0.0312 kg/ha and spray volume of […]. Percentage of emergence was evaluated at 15 DAA. Visual phenotyping was recorded using a scale of 0-6 (0: no visible effect, 6: maximum effect) at 18 DAA. All experiments included an untreated control, a solvent control and a positive control (commercial herbicide A.I.). […] Statistical analysis for plant emergence determined by % emergence ≥50 and T test (pval≤0.05), as well as Wilcox test (pval≤0.05).
# Poa annua [4] = test: LTP pre-emergence greenhouse test; settings: Dosage 2000 g/ha
# Protocol: as §2
# Ambrosia artemisiifolia [5] = test: LTP pre-emergence greenhouse test; settings: Dosage 2000 g/ha
# Protocol: as §2
# Lolium perenne [6] = test: LTP pre-emergence greenhouse test; settings: Dosage 2000 g/ha
# Protocol: as §2
# Abutilon theophrasti [7] = test: LTP pre-emergence greenhouse test; settings: Dosage 2000 g/ha
# Protocol: as §2
# Alopecurus myosuroides [8] = test: LTP pre-emergence greenhouse test; settings: Dosage 2000 g/ha
# Protocol: as §2
# Setaria viridis [9] = test: LTP pre-emergence greenhouse test; settings: Dosage 2000 g/ha
# Protocol: as §2
# Matricaria chamomilla [10] = test: LTP pre-emergence greenhouse test; settings: Dosage 2000 g/ha
# Protocol: as §2
# [11] = system: monocot and eudicot weeds species; test: In-planta LTP weed panel, overall assessment; settings: for growth inhibition (in words): dicot species, either pre- or post-emergence applications
# Alopecurus myosuroides [12] = test: LTP post-emergence greenhouse test; settings: Dosage 2000 g/ha
# Ambrosia artemisiifolia [13] = test: LTP post-emergence greenhouse test; settings: Dosage 2000 g/ha
# Setaria viridis [14] = test: LTP post-emergence greenhouse test; settings: Dosage 2000 g/ha
# Lolium perenne [15] = test: LTP post-emergence greenhouse test; settings: Dosage 2000 g/ha
# Abutilon theophrasti [16] = test: LTP post-emergence greenhouse test; settings: Dosage 2000 g/ha
# Matricaria chamomilla [17] = test: LTP post-emergence greenhouse test; settings: Dosage 2000 g/ha
# Poa annua [18] = test: LTP post-emergence greenhouse test; settings: Dosage 2000 g/ha
# Amaranthus palmeri [19] = test: LTP post-emergence greenhouse test; settings: Dosage 2000 g/ha
# [20] = system: monocot and dicot model plants; test: In-planta HTPS, overall assessment; settings: on monocots
# Protocol: The plates were placed in a controlled greenhouse in a random order inside a bath which allows flooding irrigation with tap water supplemented with a fertilizer. Applied compounds were dissolved into a final solution of 50% acetone, 49.9% DDW, 0.1% tween-20. A 96 well plate was used as a stock plate for preparing application solutions for 8 repeats. Each row contained different concentrations per chemical. Maximal concentration for application was 1.5 Kg/Ha and dilution factor is 2.5. Chemical application was performed one day after thinning out in a chemical hood. […] applied on first two true leaves in each well using 12 channel pipettes. Data collection: RGB (red, green, blue) data for green area per well was documented using camera. Data is collected at a few time points during the experiment: one day after thinning and before chemical application, two-, six- or nine-days post application. During the last two documentations, visual phenotyping was performed. Data analysis: Given RGB results and visual phenotype scores, a student t-test conducted to compare between treatment and control performance for continuous data (RGB) and Fisher exact test to analyze the non-continuous data (phenotypic scores). […] The compounds were applied as a gradient of concentrations as listed above, from which the ED50 was calculated.
compound,measurement,setting,value
NC1CCCCC1CCCC(=O)O (centres unmarked) [Compound 152],Emax,Arabidopsis thaliana [1],100%
same,ED50 (g/ha),Arabidopsis thaliana [1],4 g/ha
C[C@H](O)[C@@H](N)CCCCC(=O)O [Compound 114],Emax,Arabidopsis thaliana [1],100%
same,ED50 (g/ha),Arabidopsis thaliana [1],40 g/ha
CCC(C)C(N)c1cccc(C(=O)O)c1 (centres unmarked) [Compound 108],ED50 (g/ha),Arabidopsis thaliana [2],175 g/ha
same,Max Inhibition (%),Arabidopsis thaliana [2],100%
"C[C@@H]1OC(=O)N[C@@H]1CCCCC(=O)O [Compound 106, 5-((4R,5S)-5-methyl-2-oxooxazolidin-4-yl)pentanoic acid]",Emax,Arabidopsis thaliana [1],82%
same,ED50 (g/ha),Arabidopsis thaliana [1],>1000 g/ha
COC(=O)CN(C)C(=O)CCCCC(N)C(C)O (centres unmarked) [Compound 102],Emax,Arabidopsis thaliana [1],90%
same,ED50 (g/ha),Arabidopsis thaliana [1],2 g/ha
COC(=O)CCCSC1CCCC1N (centres unmarked) [Compound 146],"Herbicidal activity (In-planta), LTP-Pre emergence, Amaranthus palmeri",Amaranthus palmeri [3],60-80
same,"Herbicidal activity (In-planta), LTP-Pre emergence, Poa annua",Poa annua [4],0
same,"Herbicidal activity (In-planta), LTP-Pre emergence, Ambrosia artemisiifolia",Ambrosia artemisiifolia [5],0
same,"Herbicidal activity (In-planta), LTP-Pre emergence, Lolium perenne",Lolium perenne [6],40
same,"Herbicidal activity (In-planta), LTP-Pre emergence, Abutilon theophrasti",Abutilon theophrasti [7],0
same,"Herbicidal activity (In-planta), LTP-Pre emergence, Alopecurus myosuroides",Alopecurus myosuroides [8],0
same,"Herbicidal activity (In-planta), LTP-Pre emergence, Setaria viridis",Setaria viridis [9],60
same,"Herbicidal activity (In-planta), LTP-Pre emergence, Matricaria chamomilla",Matricaria chamomilla [10],0
same,Emax,Arabidopsis thaliana [1],100%
same,ED50 (g/ha),Arabidopsis thaliana [1],80 g/ha
same,growth inhibition (in words),[11],moderate growth inhibition
O=C(O)CCCCC1CCCN1 (centres unmarked) [Compound 148],"Herbicidal activity (In-planta), LTP-Pre emergence, Amaranthus palmeri",Amaranthus palmeri [3],60-80
same,"Herbicidal activity (In-planta), LTP-Pre emergence, Poa annua",Poa annua [4],60-80
same,"Herbicidal activity (In-planta), LTP-Pre emergence, Ambrosia artemisiifolia",Ambrosia artemisiifolia [5],60
same,"Herbicidal activity (In-planta), LTP-Pre emergence, Lolium perenne",Lolium perenne [6],0
same,"Herbicidal activity (In-planta), LTP-Pre emergence, Abutilon theophrasti",Abutilon theophrasti [7],40-60
same,"Herbicidal activity (In-planta), LTP-Pre emergence, Alopecurus myosuroides",Alopecurus myosuroides [8],0
same,"Herbicidal activity (In-planta), LTP-Pre emergence, Setaria viridis",Setaria viridis [9],40
same,"Herbicidal activity (In-planta), LTP-Pre emergence, Matricaria chamomilla",Matricaria chamomilla [10],60-80
same,Emax,Arabidopsis thaliana [1],100%
same,ED50 (g/ha),Arabidopsis thaliana [1],30 g/ha
same,activity (in words),"[11]; dicots and monocots, applied pre-emergence",good to moderate activity
C[C@@H](O)[C@H](N)CCCCC(=O)O [Compound 115],Emax,Arabidopsis thaliana [1],100%
same,ED50 (g/ha),Arabidopsis thaliana [1],13 g/ha
CCC(O)C(N)CCCCC(=O)O (centres unmarked) [Compound 113],Emax,Arabidopsis thaliana [1],100%
same,ED50 (g/ha),Arabidopsis thaliana [1],26 g/ha
CC(C)(C)C(N)c1cccc(C(=O)O)c1 (centres unmarked) [Compound 109],"Herbicidal activity (In-planta), LTP-Post emergence, Alopecurus myosuroides",Alopecurus myosuroides [12],0
same,"Herbicidal activity (In-planta), LTP-Post emergence, Ambrosia artemisiifolia",Ambrosia artemisiifolia [13],40
same,"Herbicidal activity (In-planta), LTP-Post emergence, Setaria viridis",Setaria viridis [14],0
same,"Herbicidal activity (In-planta), LTP-Pre emergence, Amaranthus palmeri",Amaranthus palmeri [3],40
same,"Herbicidal activity (In-planta), LTP-Pre emergence, Poa annua",Poa annua [4],0
same,"Herbicidal activity (In-planta), LTP-Pre emergence, Ambrosia artemisiifolia",Ambrosia artemisiifolia [5],0
same,"Herbicidal activity (In-planta), LTP-Pre emergence, Lolium perenne",Lolium perenne [6],0
same,"Herbicidal activity (In-planta), LTP-Pre emergence, Abutilon theophrasti",Abutilon theophrasti [7],0
same,"Herbicidal activity (In-planta), LTP-Pre emergence, Alopecurus myosuroides",Alopecurus myosuroides [8],0
same,"Herbicidal activity (In-planta), LTP-Pre emergence, Setaria viridis",Setaria viridis [9],0
same,"Herbicidal activity (In-planta), LTP-Pre emergence, Matricaria chamomilla",Matricaria chamomilla [10],0
same,ED50 (g/ha),Arabidopsis thaliana [2],24 g/ha
same,"Herbicidal activity (In-planta), LTP-Post emergence, Lolium perenne",Lolium perenne [15],0
same,"Herbicidal activity (In-planta), LTP-Post emergence, Abutilon theophrasti",Abutilon theophrasti [16],0
same,"Herbicidal activity (In-planta), LTP-Post emergence, Matricaria chamomilla",Matricaria chamomilla [17],0
same,"Herbicidal activity (In-planta), LTP-Post emergence, Poa annua",Poa annua [18],0
same,Emax,Arabidopsis thaliana [1],100%
same,ED50 (g/ha),Arabidopsis thaliana [1],200 g/ha
same,growth inhibition (in words),[11],moderate growth inhibition
same,"Herbicidal activity (In-planta), LTP-Post emergence, Amaranthus palmeri",Amaranthus palmeri [19],40
O=C(O)CCCC1CCCNC1 (centres unmarked) [Compound 154],Emax,Arabidopsis thaliana [1],100%
same,ED50 (g/ha),Arabidopsis thaliana [1],8 g/ha
"C[C@H]1OC(=O)N[C@H]1CCCCC(=O)O [Compound 105, 5-((4S,5R)-5-methyl-2-oxooxazolidin-4-yl)pentanoic acid]",Emax,Arabidopsis thaliana [1],94%
same,ED50 (g/ha),Arabidopsis thaliana [1],430 g/ha
CC(O)C(N)CCCCC(=O)NS(=O)(=O)CC1CCCC1 (centres unmarked) [Compound 101],Emax,Arabidopsis thaliana [1],100%
same,ED50 (g/ha),Arabidopsis thaliana [1],29 g/ha
O=C(O)CCCCC1CCNC1 (centres unmarked) [Compound 123],Emax,Arabidopsis thaliana [1],100%
same,ED50 (g/ha),Arabidopsis thaliana [1],140 g/ha
CCC(N)CCCCC(=O)O (centres unmarked) [Compound 149],activity (in words),[20],very good activity
same,Emax,Arabidopsis thaliana [1],100%
same,ED50 (g/ha),Arabidopsis thaliana [1],90 g/ha
CC(N)CCCCC(=O)O (centres unmarked) [Compound 107],Emax,Arabidopsis thaliana [1],100%
same,ED50 (g/ha),Arabidopsis thaliana [1],200 g/ha
NC1CCC(CCCC(=O)O)C1 (centres unmarked) [Compound 143],Emax,Arabidopsis thaliana [1],100%
same,ED50 (g/ha),Arabidopsis thaliana [1],61 g/ha
COC(=O)CCSC1CCCC1N (centres unmarked) [Compound 147],Max Inhibition (%),Arabidopsis thaliana [2],100%
same,Emax,Arabidopsis thaliana [1],50%
same,ED50 (g/ha),Arabidopsis thaliana [1],807 g/ha

# — US20230331685A1, “HERBICIDAL COMPOUNDS AND METHODS OF USE THEREOF” (AG Plenus Ltd, priority 2020, published 2023)
